The results in this text go back to patent US20230087342A1, “AZEPANE DERIVATIVE” (Nippon Chemiphar Co., Ltd., priority 2019, published 2023).

Read-outs that look alike come from different tables or passages of the source.

The target in one data set is T1, human κ opioid receptors (Homo sapiens, UniProt P41145).
T1 construct: host or cells: CHO cells
The data set can be described thus: Opioid receptor function test (Lance Ultra cAMP kit, agonist activity). The settings on record: CHO cells expressing human κ opioid receptors, 10 μM forskolin, 30 minutes. Format: cell-based. An outline of the steps:
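CHO cells expressing human κ opioid receptor incubated 30 min with test compound (10^−14 to 10^−7 M) and 10 μM forskolin in HSS/5 mM HEPES pH 7.4 with 0.5 mM IBMX and 0.1% SA. cAMP measured by TR-FRET (Lance Ultra) 1 h after detection reagent addition.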

A short description of the next data set: Metabolic stability test. The class given is in vitro ADME. Conditions: human liver microsomes, 0 to 30 minutes; a hydrochloride was used. The protocol: To determine the unchanged product-residual ratio of the test compound in the reaction sample, human liver microsomes and the test compound were reacted for a predetermined time (0 to 30 minutes). The unchanged product-residual ratio at a reaction time of 0 hours was considered 100%, the residual ratio after incubation was log-linear plotted with respect to the time, a regression line (y=100 e^−kt, k=slope of the line: elimination rate constant) was determined, and the metabolic clearance CLint (mL/min/kg) was calculated using the following formula.
CLint*=k (−min)×45 (mg MS protein/g liver)×21 (g liver/kg)/MS protein (mg MS protein/mL)
*: Yamazaki S.; Skaptason J.; Romero D, Vekich S.; Jones HM.; Tan W.; Wilner KD.; Koudriakova T. Drug Metab. Dispos. 2011 March; 39 (3): 383-393.

A further data set has as its system ICR male mice. The data set can be described thus: Mouse acetic acid writhing test. The class given is in vivo. Conditions: hydrochloride; for ED50: Mus musculus, read-out: ED50 value (writhing suppressing effect). As to the method:
Mouse Acetic Acid Writhing Test
The analgesic effect of the test compound was evaluated by an acetic acid writhing test. For the experiment, ICR male mice were used and acclimated to a plastic open field for 30 minutes before starting the test. After acclimation, the mice were administered with the test compound (30 to 3000 μg/kg) or water for injection subcutaneously or orally, and once returned to the open field. Thirty minutes after the administration of the test compound, a 0.6% aqueous acetic acid solution was additionally administered to the same mice by intraperitoneal administration. From 10 minutes after administration of the 0.6% aqueous acetic acid solution, the number of writhing reactions (writhing reactions in which the mouse stretches while pressing the abdominal cavity against the floor) induced in the mice was measured for 10 minutes, and the number of writhing reactions was compared with that of a control group (water for injection-administrated group) to evaluate the analgesic effect of the test compound.
A general note: An intraperitoneal irritant provokes the stretching counted in writhing tests.

T1 sequence (P41145 whole entry): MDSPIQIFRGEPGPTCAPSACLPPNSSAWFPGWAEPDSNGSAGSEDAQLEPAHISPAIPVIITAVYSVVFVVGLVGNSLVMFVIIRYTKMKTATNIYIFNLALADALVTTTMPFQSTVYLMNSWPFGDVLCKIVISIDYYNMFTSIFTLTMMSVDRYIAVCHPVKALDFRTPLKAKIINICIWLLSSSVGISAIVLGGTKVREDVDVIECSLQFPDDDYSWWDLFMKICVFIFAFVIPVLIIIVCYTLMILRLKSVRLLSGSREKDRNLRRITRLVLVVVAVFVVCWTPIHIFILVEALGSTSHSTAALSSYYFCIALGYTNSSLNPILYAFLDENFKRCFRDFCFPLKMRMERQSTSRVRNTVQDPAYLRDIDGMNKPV

Usually EC50 stands for the concentration needed to bring the measured effect to its halfway point. A low value points to greater potency. Broadly, the CLint scaled is a measure of how fast metabolising enzymes remove a compound, apart from limits set by blood flow. Broadly, the ED50 is the dose that gives a 50% effect, or the effect in half of the subjects. Turning to `Cc1cnn(CCN2CC[C@]34CCN(CC5CC5)[C@H](Cc5ccc(O)cc53)[C@]4(O)CC2)c1` [Example 50, (5aS,6R,11bS)-14-(cyclopropylmethyl)-3-(2-(4-methyl-1H-pyrazol-1-yl)ethyl)-2,3,4,5,6,7-hexahydro-6,11b-(epiminoethano)naphtho[1,2-d]azepine-5a,10(1H)-diol], the EC50 at human κ opioid receptors stood at 0.027 nM. In the data set “Metabolic stability test”, this compound had a CLint scaled of 8.7 mL/min/kg. The ED50 in the data set with ICR male mice (Oral) worked out at 0.21 mg/kg. Also, the Writhing suppression rate entry was “+ (40 ≤ % <60: +)” in the data set on ICR male mice (Oral, dose 300 (μg/kg)) and “+++ (80 ≤ %: +++)” in the data set on ICR male mice (Oral, dose 1000 (μg/kg)).

On human κ opioid receptors, `Cc1cnn(C[C@@H](C)N2CC[C@]34CCN(CC5CC5)[C@H](Cc5ccc(O)cc53)[C@]4(O)CC2)c1` [Example 229, (5aS,6R,11bS)-14-(cyclopropylmethyl)-3-((R)-1-(4-methyl-1H-pyrazol-1-yl)propan-2-yl)-2,3,4,5,6,7-hexahydro-6,11b-(epiminoethano)naphtho[1,2-d]azepine-5a,10(1H)-diol] had an EC50 of 0.025 nM. In “Metabolic stability test”, this compound yielded a CLint scaled of 5.1 mL/min/kg.

Compound `Oc1ccc2c(c1)[C@@]13CCN(CCc4ccccc4)CC[C@@]1(O)[C@@H](C2)N(CC1CC1)CC3` [Example 90, (5aS,6R,11bS)-14-(cyclopropylmethyl)-3-phenethyl-2,3,4,5,6,7-hexahydro-6,11b-(epiminoethano)naphtho[1,2-d]azepine-5a,10(1H)-diol] gave an EC50 on human κ opioid receptors of 0.87 nM. Besides, the CLint scaled in “Metabolic stability test” came out at 11.6 mL/min/kg.

The compound `Oc1ccc2c(c1)[C@@]13CCN(CCn4cc(Br)cn4)CC[C@@]1(O)[C@@H](C2)N(CC1CC1)CC3` [Example 61, (5aS,6R,11bS)-3-(2-(4-bromo-1H-pyrazol-1-yl)ethyl)-14-(cyclopropylmethyl)-2,3,4,5,6,7-hexahydro-6,11b-(epiminoethano)naphtho[1,2-d]azepine-5a,10(1H)-diol] showed an EC50 at human κ opioid receptors of 0.028 nM. For the same compound, the CLint scaled in the data set “Metabolic stability test” is 26 mL/min/kg.

At human κ opioid receptors, `Cc1cnn(CCN2CC[C@]34CCN(CC5CC5)[C@H](Cc5cc(Cl)c(O)cc53)[C@]4(O)CC2)c1` [Example 326, (5aS,6R,11bS)-9-chloro-14-(cyclopropylmethyl)-3-(2-(4-methyl-1H-pyrazol-1-yl)ethyl)-2,3,4,5,6,7-hexahydro-6,11b-(epiminoethano)naphtho[1,2-d]azepine-5a,10(1H)-diol] came in with an EC50 of 0.18 nM. This compound also came in with a CLint scaled in “Metabolic stability test” of 10.9 mL/min/kg.

`O=C(Cc1ccccn1)N1CC[C@]23CCN(CC4CC4)[C@H](Cc4cc(Cl)c(O)cc42)[C@]3(O)CC1` [Example 308, 1-((5aS,6R,11bR)-9-chloro-14-(cyclopropylmethyl)-5a,10-dihydroxy-1,2,5,5a,6,7-hexahydro-6,11b-(epiminoethano)naphtho[1,2-d]azepin-3(4H)-yl)-2-(pyridin-2-yl)ethan-1-one] gave an EC50 on human κ opioid receptors of 0.6 nM. This compound also showed a CLint scaled in the data set “Metabolic stability test” of 9 mL/min/kg. In the data set on ICR male mice (Oral), the ED50 was determined as 1.42 mg/kg. In addition, the Writhing suppression rate result with ICR male mice (Oral, dose 1000 (μg/kg)) was “+ (40 ≤ % <60: +)”; in the data set with ICR male mice (Oral, dose 3000 (μg/kg)) it was “++ (60 ≤ % <80: ++)”.

For `Oc1ccc2c(c1)[C@@]13CCN(CCc4nccs4)CC[C@@]1(O)[C@@H](C2)N(CC1CC1)CC3` [Example 31, (5aS,6R,11bS)-14-(cyclopropylmethyl)-3-(2-(thiazol-2-yl)ethyl)-2,3,4,5,6,7-hexahydro-6,11b-(epiminoethano)naphtho[1,2-d]azepine-5a,10(1H)-diol], a half-maximal response on human κ opioid receptors (EC50) required 0.11 nM. This compound came in with a CLint scaled in the data set “Metabolic stability test” of 7.5 mL/min/kg.

The compound `Oc1ccc2c(c1)[C@@]13CCN(CCn4cccn4)CC[C@@]1(O)[C@@H](C2)N(CC1CC1)CC3` [Example 45, (5aS,6R,11bS)-3-(2-(1H-pyrazol-1-yl)ethyl)-14-(cyclopropylmethyl)-2,3,4,5,6,7-hexahydro-6,11b-(epiminoethano)naphtho[1,2-d]azepine-5a,10(1H)-diol] showed an EC50 at human κ opioid receptors of 0.17 nM. The compound also came in with a CLint scaled in the data set “Metabolic stability test” of 4.5 mL/min/kg. Also, the Writhing suppression rate entry in the data set with ICR male mice (Subcutaneous, dose 30 (μg/kg)) is given as “++ (60 ≤ % <80: ++)”.

In the case of `Oc1ccc2c(c1)[C@@]13CCN(CCc4cscn4)CC[C@@]1(O)[C@@H](C2)N(CC1CC1)CC3` [Example 34, (5aS,6R,11bS)-14-(cyclopropylmethyl)-3-(2-(thiazol-4-yl)ethyl)-2,3,4,5,6,7-hexahydro-6,11b-(epiminoethano)naphtho[1,2-d]azepine-5a,10(1H)-diol], on human κ opioid receptors, the EC50 was 0.04 nM. Also, the Writhing suppression rate entry in the data set with ICR male mice (Subcutaneous, dose 30 (μg/kg)) is given as “++ (60 ≤ % <80: ++)”.

On to `Cc1cnn(CCN2CC[C@]34CCN(CC5CC5)[C@H](Cc5cc(Br)c(O)cc53)[C@]4(O)CC2)c1` [Example 263, (5aS,6R,11bS)-9-bromo-14-(cyclopropylmethyl)-3-(2-(4-methyl-1H-pyrazol-1-yl)ethyl)-2,3,4,5,6,7-hexahydro-6,11b-(epiminoethano)naphtho[1,2-d]azepine-5a,10(1H)-diol], for which a half-maximal response on human κ opioid receptors (EC50) required 0.89 nM. The CLint scaled in “Metabolic stability test” came out at 18 mL/min/kg.

At human κ opioid receptors, `O=C(Cc1ccccn1)N1CC[C@]23CCN(CC4CC4)[C@H](Cc4ccc(O)cc42)[C@]3(O)CC1` [Example 22, 1-((5aS,6R,11bR)-14-(cyclopropylmethyl)-5a,10-dihydroxy-1,2,5,5a,6,7-hexahydro-6,11b-(epiminoethano)naphtho[1,2-d]azepin-3(4H)-yl)-2-(pyridin-2-yl)ethan-1-one] gave an EC50 of 0.13 nM. Besides, the CLint scaled in “Metabolic stability test” came out at 7.2 mL/min/kg. In addition, the ED50 in the data set on ICR male mice (Oral) was 0.0152 mg/kg. The Writhing suppression rate result is “+ (40 ≤ % <60: +)” with ICR male mice (Oral, dose 30 (μg/kg)) and “++ (60 ≤ % <80: ++)” in the data set with ICR male mice (Oral, dose 300 (μg/kg)).

On to `Oc1ccc2c(c1)[C@@]13CCN(CCc4ccccn4)CC[C@@]1(O)[C@@H](C2)N(CC1CC1)CC3` [Example 77, (5aS,6R,11bS)-14-(cyclopropylmethyl)-3-(2-(pyridin-2-yl)ethyl)-2,3,4,5,6,7-hexahydro-6,11b-(epiminoethano)naphtho[1,2-d]azepine-5a,10(1H)-diol], for which it took 0.026 nM to reach a half-maximal effect on human κ opioid receptors (EC50). Also, the CLint scaled in “Metabolic stability test” came out at 6.7 mL/min/kg. The ED50 in the data set on ICR male mice (sc, Subcutaneous) amounted to 0.0125 mg/kg. The Writhing suppression rate entry with ICR male mice (Subcutaneous, dose 30 (μg/kg)) is given as “+ (40 ≤ % <60: +)”; in the data set with ICR male mice (Subcutaneous, dose 300 (μg/kg)), “+++ (80 ≤ %: +++)”.
